Reference: ChEMBL document CHEMBL1201862, “PubChem BioAssay data set” (2004)
Activity calls are given as the source filed them.

Columns and labels:
[1] = control 3'UTR Renilla luciferase suppression, dose response, counter-screen for Shn3 inhibitor project, cell-based, Clone20-Shn3RL, cherry-picked (AID 624133); assay type: functional
[2] = HepG2 cell cytotoxicity, dose response, cytotoxicity control for Shn3 inhibitor project, CellTiter-Glo, cherry-picked (AID 624134); assay type: functional, cell-based
[3] = Shn3 3'UTR reporter inhibitors, dose response, cell-based, Clone20 osteoblasts, firefly luciferase, cherry-picked (AID 624132); assay type: functional;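 note: firefly luciferase luminescence from reporter carrying the Shn3 3'UTR in osteoblasts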
[4] = test system: HEK293; test: inhibitors of LMP1-driven NF-kB reporter, dose response, cell-based, HEK293, luciferase, cherry-pick (AID 588343); assay type: functional; details: Homo sapiens
[5] = target: Beta-galactosidase (Escherichia coli, UniProt Q8VNN2); test: PubChem AID 485352; assay type: functional
Sequence of Beta-galactosidase (Q8VNN2 whole entry): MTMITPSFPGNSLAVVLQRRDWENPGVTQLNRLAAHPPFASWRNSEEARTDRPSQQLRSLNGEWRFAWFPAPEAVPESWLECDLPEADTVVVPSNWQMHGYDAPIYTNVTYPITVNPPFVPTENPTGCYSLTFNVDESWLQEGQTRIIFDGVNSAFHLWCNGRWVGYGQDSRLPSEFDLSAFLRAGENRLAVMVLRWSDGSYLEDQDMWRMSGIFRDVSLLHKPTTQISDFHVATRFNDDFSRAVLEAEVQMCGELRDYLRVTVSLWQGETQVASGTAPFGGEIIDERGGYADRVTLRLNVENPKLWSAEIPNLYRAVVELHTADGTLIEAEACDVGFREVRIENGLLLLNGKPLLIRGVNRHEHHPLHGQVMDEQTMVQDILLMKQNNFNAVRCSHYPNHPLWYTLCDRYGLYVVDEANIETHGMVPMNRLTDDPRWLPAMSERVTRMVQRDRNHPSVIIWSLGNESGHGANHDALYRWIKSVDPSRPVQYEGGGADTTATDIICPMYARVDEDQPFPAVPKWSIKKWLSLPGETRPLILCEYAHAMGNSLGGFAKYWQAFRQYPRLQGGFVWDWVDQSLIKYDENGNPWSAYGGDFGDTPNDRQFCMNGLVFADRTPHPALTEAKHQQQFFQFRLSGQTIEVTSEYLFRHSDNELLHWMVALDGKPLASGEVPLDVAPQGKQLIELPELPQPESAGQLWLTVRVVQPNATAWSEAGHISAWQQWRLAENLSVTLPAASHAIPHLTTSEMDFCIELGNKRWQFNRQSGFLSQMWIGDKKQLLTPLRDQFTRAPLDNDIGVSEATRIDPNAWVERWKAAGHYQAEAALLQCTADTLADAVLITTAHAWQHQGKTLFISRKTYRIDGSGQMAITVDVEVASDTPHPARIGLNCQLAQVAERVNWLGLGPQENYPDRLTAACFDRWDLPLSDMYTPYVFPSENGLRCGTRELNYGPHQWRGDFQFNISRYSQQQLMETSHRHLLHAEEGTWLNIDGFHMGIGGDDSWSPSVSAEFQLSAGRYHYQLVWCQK

[6] = Luminescence Cell-Based Dose Response HTS to Identify Inhibitors of 5'UTR Stem-Loop Driven Prion Protein mRNA Translation in H4 Neuroglioblastoma Cells. [Related pubchem assays: 1827 (Project Summary), 1813 (Primary HTS)]; assay type: functional
[7] = target: T1, Type-1 angiotensin II receptor (Homo sapiens, UniProt P30556); test: AT1 receptor antagonists, dose response, selectivity assay for APJ receptor antagonist project, cell-based, uHTS hits (AID 463214); assay type: functional;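 note: antagonist potency against angiotensin II stimulated AT1 response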
T1 sequence (P30556 whole entry): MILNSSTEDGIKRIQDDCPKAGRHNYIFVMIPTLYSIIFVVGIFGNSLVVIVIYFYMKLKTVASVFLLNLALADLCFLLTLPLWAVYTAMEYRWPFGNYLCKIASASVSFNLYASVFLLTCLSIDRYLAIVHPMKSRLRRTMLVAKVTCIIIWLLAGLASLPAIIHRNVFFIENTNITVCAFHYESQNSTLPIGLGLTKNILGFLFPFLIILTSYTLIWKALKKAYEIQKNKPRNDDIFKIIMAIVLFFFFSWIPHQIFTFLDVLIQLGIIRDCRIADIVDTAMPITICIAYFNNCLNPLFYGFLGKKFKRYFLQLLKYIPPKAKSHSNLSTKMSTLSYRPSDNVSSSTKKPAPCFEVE

[8] = inhibitors of firefly luciferase expression or activity, dose response, H4 neuroglioma cells, luminescence (AID 1990); assay type: functional, cell-based
[9] = inhibitors of SNCA 5'UTR-driven reporter translation, confirmation, H4 neuroglioma cells, luminescence (AID 1988); assay type: functional, cell-based
[10] = target: Induced myeloid leukemia cell differentiation protein Mcl-1 (Homo sapiens, UniProt Q07820); assay type: functional
Sequence of Induced myeloid leukemia cell differentiation protein Mcl-1 (Q07820 whole entry): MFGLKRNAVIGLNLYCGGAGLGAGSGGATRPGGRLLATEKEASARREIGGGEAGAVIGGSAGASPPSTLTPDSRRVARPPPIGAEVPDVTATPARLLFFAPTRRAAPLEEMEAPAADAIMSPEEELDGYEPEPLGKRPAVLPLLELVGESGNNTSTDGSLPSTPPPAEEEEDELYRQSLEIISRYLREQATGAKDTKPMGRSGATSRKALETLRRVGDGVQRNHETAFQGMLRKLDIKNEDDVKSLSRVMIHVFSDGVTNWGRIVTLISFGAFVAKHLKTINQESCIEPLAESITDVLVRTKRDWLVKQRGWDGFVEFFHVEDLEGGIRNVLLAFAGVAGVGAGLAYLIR

[11] = target: Paired box protein Pax-8 (Homo sapiens, UniProt Q06710); test: inhibitors of PAX8-driven TPO luciferase reporter, dose response, RMG-I cells, cherry-pick (AID 687027); assay type: functional, cell-based;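 note: luciferase reporter driven by Pax8 target thyroperoxidase promoter measured by SteadyGlo luminescence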
Sequence of Paired box protein Pax-8 (Q06710 whole entry): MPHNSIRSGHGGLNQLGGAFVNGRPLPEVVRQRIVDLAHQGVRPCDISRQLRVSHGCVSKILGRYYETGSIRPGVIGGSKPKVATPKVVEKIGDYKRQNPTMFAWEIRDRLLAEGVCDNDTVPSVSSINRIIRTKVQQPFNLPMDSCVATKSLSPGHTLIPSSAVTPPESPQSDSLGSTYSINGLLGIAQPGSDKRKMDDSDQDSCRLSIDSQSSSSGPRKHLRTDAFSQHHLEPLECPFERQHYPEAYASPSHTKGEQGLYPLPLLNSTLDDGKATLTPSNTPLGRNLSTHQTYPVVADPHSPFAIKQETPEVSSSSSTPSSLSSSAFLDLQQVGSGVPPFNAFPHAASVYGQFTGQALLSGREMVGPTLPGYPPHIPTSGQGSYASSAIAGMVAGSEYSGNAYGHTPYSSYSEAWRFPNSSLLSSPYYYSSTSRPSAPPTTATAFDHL

[12] = test system: Vero; test: cells; assay type: functional; details: Chlorocebus sabaeus
[13] = inhibitors of HIV Env-driven cell fusion, dose response, cherry-pick (AID 652057); assay type: functional, cell-based
[14] = inhibitors of clade B AD8 Env fusion, dose response, cell-based, cherry-pick (AID 652062); assay type: functional;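 note: luciferase signal from cell-cell fusion driven by HIV-1 clade B AD8 Env; potency is for inhibitors of fusion seen as a drop in luminescence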
[15] = off-target signal loss in HeLa-CEM21 co-culture – HeLa F-luc CTL cells, cherry-picked, counter-screen for HIV-1 Env fusion inhibitor project, dose response (AID 652040); assay type: functional, cell-based;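 note: potency for signal decrease marking cytotoxic or nonspecific inhibition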
[16] = ZM109 Env clade C HIV-1 fusion inhibitors, dose response, HeLa effector, CEM target cells, luciferase, cherry-pick (AID 652058); assay type: functional, cell-based
[17] = target: T2, Aminopeptidase N (Plasmodium falciparum FcB1/Columbia, UniProt O96935); test: P. falciparum M1AAP inhibitors, biochemical, fluorogenic H-Leu-NHMec substrate, 1536-well (AID 1445); design: species or system Plasmodium falciparum 3D7, 3D7
T2 sequence (O96935 whole entry): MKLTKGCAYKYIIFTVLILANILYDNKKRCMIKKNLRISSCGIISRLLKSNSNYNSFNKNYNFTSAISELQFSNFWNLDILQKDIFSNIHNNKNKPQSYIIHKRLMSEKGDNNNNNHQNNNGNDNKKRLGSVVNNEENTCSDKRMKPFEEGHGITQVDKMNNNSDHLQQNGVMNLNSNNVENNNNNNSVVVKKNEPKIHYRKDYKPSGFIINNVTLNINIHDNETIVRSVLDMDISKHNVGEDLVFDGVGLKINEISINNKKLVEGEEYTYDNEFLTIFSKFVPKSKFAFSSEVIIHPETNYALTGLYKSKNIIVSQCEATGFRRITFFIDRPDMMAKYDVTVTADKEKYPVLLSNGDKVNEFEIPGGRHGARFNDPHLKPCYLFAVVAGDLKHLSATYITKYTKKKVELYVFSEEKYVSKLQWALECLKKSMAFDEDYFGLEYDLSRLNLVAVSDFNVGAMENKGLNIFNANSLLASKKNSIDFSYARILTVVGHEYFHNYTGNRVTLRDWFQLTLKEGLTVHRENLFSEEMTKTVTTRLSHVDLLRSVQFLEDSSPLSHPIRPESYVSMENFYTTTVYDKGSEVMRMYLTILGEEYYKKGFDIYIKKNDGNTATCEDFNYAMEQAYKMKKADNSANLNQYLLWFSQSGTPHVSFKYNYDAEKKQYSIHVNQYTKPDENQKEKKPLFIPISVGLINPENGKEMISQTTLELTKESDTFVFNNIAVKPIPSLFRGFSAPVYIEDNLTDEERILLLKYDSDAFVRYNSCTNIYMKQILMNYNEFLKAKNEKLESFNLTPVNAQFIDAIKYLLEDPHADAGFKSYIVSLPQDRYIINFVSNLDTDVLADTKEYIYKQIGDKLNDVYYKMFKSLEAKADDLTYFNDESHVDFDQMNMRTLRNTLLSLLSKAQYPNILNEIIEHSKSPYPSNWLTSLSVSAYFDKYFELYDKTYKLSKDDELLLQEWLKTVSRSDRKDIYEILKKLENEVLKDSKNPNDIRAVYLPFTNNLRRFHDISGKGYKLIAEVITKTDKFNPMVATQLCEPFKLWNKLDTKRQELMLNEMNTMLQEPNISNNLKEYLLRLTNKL

Which AC50 [1] does the source give for `OC1(c2cccc(C(F)(F)F)c2)CCN(c2[nH]cnc3c4cc(F)ccc4nc2-3)CC1` here?
Its AC50 is 6.11 µM (active).

What about the AC50 [2] of the same compound?
Its AC50 is 46 µM (active).

And the AC50 [3]?
Its AC50 is 1.87 µM (active).

What about the AC50 [4] of the same compound?
The AC50 was 7.02 µM (active).

For `NNc1nc(-c2ccccc2)cc(-c2ccccc2)n1`, which EC50 [5] is on record?
The EC50 was > 40 µM (inactive).

What about the EC50 [6] of the same compound?
Its EC50 is > 120 µM (not active).

And the IC50 [7]?
The IC50 was 13 µM (active).

What about the EC50 [8] of the same compound?
The EC50 was > 120 µM (not active).

And the EC50 [9]?
Its EC50 is > 120 µM (not active).

Which IC50 [10] does the source give for `Cc1ccc(/C=C/C(=O)NCc2ccccn2)o1` here?
The IC50 was 6.32 µM (active).

With `COc1cccc(/C=C2\SC(=S)N(CCC(=O)NCCc3ccc(O)cc3)C2=O)c1` as the compound, how does the AC50 [11] read?
Its AC50 is 4.57 µM (active).

And the CC50 [12]?
The CC50 was 16.1 µM (active).

For `O=C(Nc1cc(Cl)cc(Cl)c1)C1CCC(=O)N1Cc1ccccc1Cl` (stereo unspecified), which AC50 [13] is on record?
The AC50 was 7.12 µM (active).

What about the AC50 [14] of the same compound?
Its AC50 is 8.36 µM (active).

What about the AC50 [15] of the same compound?
Its AC50 is 59.2 µM (active).

What about the AC50 [16] of the same compound?
Its AC50 is 19.3 µM (active).

With `COc1cc(/C=C/C(=O)O)cc(S(=O)(=O)Nc2ccc3nc(SC)sc3c2)c1OC` as the compound, how does the IC50 [17] read?
Its IC50 is 66.4 µM (active).

With `NNC(=O)c1cccc(COc2ccc3c(c2)CCC3)c1` as the compound, how does the AC50 [4] read?
The AC50 was 2.12 µM (active).

For `COc1cc(/C=C2\SC(=S)N(CC(=O)Nc3ccc(O)cc3)C2=O)cc(OC)c1OC`, which IC50 [10] is on record?
Its IC50 is 3.74 µM (active).

With `Cc1ccc2nc3c(nc2c1C)C(O)=C3O` as the compound, how does the IC50 [17] read?
The IC50 was 48.5 µM (active).

Which IC50 [17] does the source give for `Cc1cccc(-c2nc3ccccc3c(=O)n2NC(=O)c2cccs2)c1` here?
Its IC50 is 44.1 µM (active).
